Where two headings read alike, the source gives them in different places.

Common to all, as to assay type: biochemical
One assay addresses CTX-M-14 (Escherichia coli, UniProt Q9L5C7). In words: Inhibitory activity on SBL, fluorescent substrate FC-5. The settings on record: for IC50: read-out: Inhibitory activity on SBL CTX-M-14 (IC50 class).
The next assay has as its target VIM-1 (Pseudomonas aeruginosa, UniProt A0A0F7KYQ8). The experiment in a line: Inhibitory activity on MBL, fluorescent substrate FC-5.
For another assay, the target named is VIM-2 (Escherichia coli, UniProt Q5U7L7). Described as above. As to conditions: read-out: Inhibitory activity on MBL VIM-2 (IC50 class).
In a further assay the target is NDM-5 (Klebsiella pneumoniae, UniProt C7C422, M154L/V88L). The assay is described as above.
Sequence of NDM-5 (C7C422 29-270 V88L/M154L): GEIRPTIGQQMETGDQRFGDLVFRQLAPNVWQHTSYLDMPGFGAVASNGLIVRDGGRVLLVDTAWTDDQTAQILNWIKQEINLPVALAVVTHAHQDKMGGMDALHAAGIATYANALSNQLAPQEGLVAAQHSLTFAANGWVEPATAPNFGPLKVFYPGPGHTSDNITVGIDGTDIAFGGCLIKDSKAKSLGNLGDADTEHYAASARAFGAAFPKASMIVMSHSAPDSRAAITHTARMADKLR
The target in the next assay is T1, SHV-12 (UniProt P0AD64, L31Q/G234S/E235K, species not given).
T1 sequence (P0AD64 1-286 L31Q/G234S/E235K): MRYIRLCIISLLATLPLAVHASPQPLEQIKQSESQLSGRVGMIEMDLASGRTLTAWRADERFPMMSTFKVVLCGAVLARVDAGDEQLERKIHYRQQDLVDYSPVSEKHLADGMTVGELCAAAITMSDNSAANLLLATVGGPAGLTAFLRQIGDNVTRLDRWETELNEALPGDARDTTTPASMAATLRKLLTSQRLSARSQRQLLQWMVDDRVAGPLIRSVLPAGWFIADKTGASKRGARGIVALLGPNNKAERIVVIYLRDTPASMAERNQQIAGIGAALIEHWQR
In words: Inhibitory activity on SBL, fluorescent substrate FC-5. The settings on record: read-out: Inhibitory activity on SBL SHV-12 (IC50 class).

The next assay addresses IMP-1 (Serratia marcescens, UniProt P52699). The experiment in a line: Inhibitory activity on MBL, fluorescent substrate FC-5.
A further assay deals with NDM-1 (Klebsiella pneumoniae, UniProt C7C422). The assay is described as above.
Sequence of NDM-1 (C7C422 29-270 limits assumed): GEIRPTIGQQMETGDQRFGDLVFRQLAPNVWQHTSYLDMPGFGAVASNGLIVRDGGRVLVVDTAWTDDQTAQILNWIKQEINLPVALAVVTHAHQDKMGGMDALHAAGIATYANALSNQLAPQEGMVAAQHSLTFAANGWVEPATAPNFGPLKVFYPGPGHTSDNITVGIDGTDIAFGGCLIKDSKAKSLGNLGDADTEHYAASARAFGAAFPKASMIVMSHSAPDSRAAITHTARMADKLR
In the next assay the target is TEM-1 (Escherichia coli, UniProt P62593). The experiment in a line: Inhibitory activity on SBL, fluorescent substrate FC-5. The settings on record: for IC50: read-out: Inhibitory activity on SBL TEM-1 (IC50 class).
Sequence of TEM-1 (P62593 24-286 limits assumed): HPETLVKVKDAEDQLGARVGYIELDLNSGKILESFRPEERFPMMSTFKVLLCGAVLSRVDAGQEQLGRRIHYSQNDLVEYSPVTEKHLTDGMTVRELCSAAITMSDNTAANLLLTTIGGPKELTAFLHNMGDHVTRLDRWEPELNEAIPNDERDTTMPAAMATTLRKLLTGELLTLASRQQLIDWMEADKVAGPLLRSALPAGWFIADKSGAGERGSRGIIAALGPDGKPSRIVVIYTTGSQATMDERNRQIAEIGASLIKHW
A further assay has as its target KPC-2 (Klebsiella pneumoniae, UniProt Q9F663). The description is as above. The settings on record: for IC50: read-out: Inhibitory activity on SBL KPC-2 (IC50 class).
The target of another assay is OXA-48 (Klebsiella pneumoniae, UniProt Q6XEC0). The assay is described as above. The settings on record: for IC50: read-out: Inhibitory activity on SBL OXA-48 (IC50 class).
Sequence of OXA-48 (Q6XEC0 23-265 limits assumed): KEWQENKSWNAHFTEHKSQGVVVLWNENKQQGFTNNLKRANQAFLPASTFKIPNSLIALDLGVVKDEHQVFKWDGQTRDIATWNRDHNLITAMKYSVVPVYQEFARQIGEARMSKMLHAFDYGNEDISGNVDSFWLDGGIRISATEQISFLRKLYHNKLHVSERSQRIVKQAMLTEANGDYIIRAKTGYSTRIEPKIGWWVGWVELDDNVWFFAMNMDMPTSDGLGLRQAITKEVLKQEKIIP
The mark [1] stands for this setting: read-out: Inhibitory activity on MBL VIM-1 (IC50 class).
Where [2] appears, read: read-out: Inhibitory activity on MBL NDM-5 (IC50 class).
The mark [3] stands for this setting: read-out: Inhibitory activity on MBL IMP-1 (IC50 class).
Setting [4] is: read-out: Inhibitory activity on MBL NDM-1 (IC50 class).
Setting [5] is: VIM-1 and/or VIM-2, read-out: inhibitory activity at a nanomolar-level on VIM-1 and/or VIM-2.
Where [6] appears, read: read-out: inhibitory activity at a nanomolar-level on NDM-5.
[7] abbreviates: read-out: inhibitory activity at a nanomolar-level on NDM-1.

Sequence of CTX-M-14 (Q9L5C7 entry or part of it): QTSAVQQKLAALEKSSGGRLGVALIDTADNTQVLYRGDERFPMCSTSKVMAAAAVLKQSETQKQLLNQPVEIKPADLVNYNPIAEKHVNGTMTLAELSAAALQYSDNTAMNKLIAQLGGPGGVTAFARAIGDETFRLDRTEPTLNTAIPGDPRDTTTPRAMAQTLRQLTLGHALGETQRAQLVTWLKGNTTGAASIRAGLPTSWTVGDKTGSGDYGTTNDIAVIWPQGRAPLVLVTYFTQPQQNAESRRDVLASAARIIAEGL
Sequence of IMP-1 (P52699 19-246 limits assumed): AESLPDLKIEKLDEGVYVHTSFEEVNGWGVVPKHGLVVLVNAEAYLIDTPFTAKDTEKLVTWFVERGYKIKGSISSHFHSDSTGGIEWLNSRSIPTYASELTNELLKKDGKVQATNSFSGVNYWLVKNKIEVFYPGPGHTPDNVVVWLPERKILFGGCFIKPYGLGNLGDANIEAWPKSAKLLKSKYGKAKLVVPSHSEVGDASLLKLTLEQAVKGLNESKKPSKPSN
Sequence of KPC-2 (Q9F663 25-293 limits assumed): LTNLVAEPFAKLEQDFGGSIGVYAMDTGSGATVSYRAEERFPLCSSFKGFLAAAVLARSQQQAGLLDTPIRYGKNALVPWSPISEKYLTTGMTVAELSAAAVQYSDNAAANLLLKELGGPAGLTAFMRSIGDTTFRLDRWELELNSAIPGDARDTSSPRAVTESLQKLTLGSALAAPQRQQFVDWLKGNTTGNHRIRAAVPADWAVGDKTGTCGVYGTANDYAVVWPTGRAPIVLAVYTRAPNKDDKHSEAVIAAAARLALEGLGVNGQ

Regarding `NC(=O)[C@@H]1CC[C@@H]2CN1C(=O)N2OS(=O)(=O)O` [Avibactam, reference compound], the IC50 on CTX-M-14 was below 10 nM; on VIM-1 (setting [1]), above 100000 nM; at VIM-2 it was above 100000 nM; on NDM-5 (setting [2]), above 100000 nM; on SHV-12, below 10 nM; on IMP-1 (setting [3]), above 100000 nM. On NDM-1 (setting [4]), the IC50 was above 100000 nM.

Consider `O=C(O)c1c(Cn2nccn2)ccc2c1OB(O)CC2` [Compound 1], for which the IC50 on CTX-M-14 is 10 to 1000 nM; at VIM-1 (setting [5]) it was below 1000 nM; on VIM-1 (setting [1]) it was 1000 to 100000 nM; at VIM-2, 10 to 1000 nM; on TEM-1, 10 to 1000 nM; at KPC-2, below 10 nM. The IC50 is 10 to 1000 nM at NDM-5 (setting [2]); below 1000 nM on NDM-5 (setting [6]); below 10 nM at OXA-48; 10 to 1000 nM on SHV-12; 1000 to 100000 nM on IMP-1 (setting [3]); 10 to 1000 nM at NDM-1 (setting [4]). Besides, at NDM-1 (setting [7]), the IC50 was below 1000 nM.

For `O=C(O)c1c(Cn2ccnn2)ccc2c1OB(O)CC2` [Compound 2], the IC50 is 10 to 1000 nM on CTX-M-14; below 1000 nM on VIM-1 (setting [5]); 1000 to 100000 nM on VIM-1 (setting [1]); 10 to 1000 nM on VIM-2; 10 to 1000 nM at TEM-1; below 10 nM at KPC-2. The IC50 was 10 to 1000 nM at NDM-5 (setting [2]); below 1000 nM at NDM-5 (setting [6]); 10 to 1000 nM on OXA-48; 10 to 1000 nM at SHV-12; 1000 to 100000 nM on IMP-1 (setting [3]); 10 to 1000 nM on NDM-1 (setting [4]). For the same compound, on NDM-1 (setting [7]), the IC50 was below 1000 nM.

Take `C[n+]1ccn(Cc2ccc3c(c2C(=O)O)OB(O)CC3)n1` [Compound 3]: the IC50 at CTX-M-14 is 10 to 1000 nM; at VIM-1 (setting [5]), below 1000 nM; at VIM-1 (setting [1]), 1000 to 100000 nM; on VIM-2, 10 to 1000 nM; on TEM-1, 10 to 1000 nM; at KPC-2 it was below 10 nM. Also, the IC50 was 10 to 1000 nM at NDM-5 (setting [2]); below 1000 nM on NDM-5 (setting [6]); 10 to 1000 nM at OXA-48; 10 to 1000 nM at SHV-12; 1000 to 100000 nM at IMP-1 (setting [3]); 10 to 1000 nM at NDM-1 (setting [4]). Besides, on NDM-1 (setting [7]), the IC50 was below 1000 nM.

For `CCCc1cn(Cc2ccc3c(c2C(=O)O)OB(O)CC3)nn1` [Compound 4], the IC50 on CTX-M-14 is 10 to 1000 nM; at VIM-1 (setting [1]) it was 1000 to 100000 nM; at VIM-2, 1000 to 100000 nM; at TEM-1, 10 to 1000 nM; on KPC-2, below 10 nM; on NDM-5 (setting [2]), 10 to 1000 nM. Also, the IC50 at NDM-5 (setting [6]) was below 1000 nM; at OXA-48, 10 to 1000 nM; on SHV-12, 10 to 1000 nM; on IMP-1 (IMP-1 and/or IMP-4, read-out: inhibitory activity at a nanomolar-level on IMP-1 and/or IMP-4), below 1000 nM; at IMP-1 (setting [3]) it was 10 to 1000 nM; on NDM-1 (setting [4]), 10 to 1000 nM. The IC50 on NDM-1 (setting [7]) was below 1000 nM.

Turning to `O=C(O)c1c(Cn2cc(CN3CCCC3)nn2)ccc2c1OB(O)CC2` [Compound 5], the IC50 on CTX-M-14 was 10 to 1000 nM; on VIM-1 (setting [5]) it was below 1000 nM; at VIM-1 (setting [1]), 1000 to 100000 nM; at VIM-2, 10 to 1000 nM; at TEM-1, 10 to 1000 nM; on KPC-2, below 10 nM. Besides, the IC50 lay within 10 to 1000 nM on NDM-5 (setting [2]); 10 to 1000 nM at OXA-48; 10 to 1000 nM on SHV-12; 1000 to 100000 nM on IMP-1 (setting [3]); 1000 to 100000 nM on NDM-1 (setting [4]).

Regarding `N#CCCCc1cn(Cc2ccc3c(c2C(=O)O)OB(O)CC3)nn1` [Compound 6], the IC50 on CTX-M-14 is 10 to 1000 nM; at VIM-1 (setting [5]), below 1000 nM; on VIM-1 (setting [1]) it was 1000 to 100000 nM; at VIM-2, 10 to 1000 nM; at TEM-1, 10 to 1000 nM; at KPC-2 it was below 10 nM. Moreover, the IC50 at NDM-5 (setting [2]) lay in the range of 10 to 1000 nM; at OXA-48, 10 to 1000 nM; at SHV-12 it was 10 to 1000 nM; on IMP-1 (setting [3]), 1000 to 100000 nM; at NDM-1 (setting [4]) it was 1000 to 100000 nM.

For `O=C(O)c1c(Cn2cncn2)ccc2c1OB(O)CC2` [Compound 13], the IC50 was below 10 nM on CTX-M-14; below 1000 nM on VIM-1 (setting [5]); 1000 to 100000 nM on VIM-1 (setting [1]); 10 to 1000 nM at VIM-2; 10 to 1000 nM on TEM-1; below 10 nM on KPC-2. Besides, the IC50 is 10 to 1000 nM at NDM-5 (setting [2]); below 1000 nM at NDM-5 (setting [6]); below 10 nM at OXA-48; 10 to 1000 nM on SHV-12; 1000 to 100000 nM at IMP-1 (setting [3]); 10 to 1000 nM at NDM-1 (setting [4]). Besides, at NDM-1 (setting [7]), the IC50 was below 1000 nM.

Take `O=C(O)c1c(Cn2cccn2)ccc2c1OB(O)CC2` [Compound 14]: the IC50 on CTX-M-14 was below 10 nM; on VIM-1 (setting [5]), below 1000 nM; on VIM-1 (setting [1]) it was 1000 to 100000 nM; at VIM-2, 10 to 1000 nM; at TEM-1 it was 10 to 1000 nM; on KPC-2, below 10 nM. For the same compound, the IC50 at NDM-5 (setting [2]) is 10 to 1000 nM; at NDM-5 (setting [6]) it was below 1000 nM; at OXA-48 it was below 10 nM; on SHV-12, 10 to 1000 nM; at IMP-1 (setting [3]), 1000 to 100000 nM; on NDM-1 (setting [4]), 10 to 1000 nM. For the same compound, on NDM-1 (setting [7]), the IC50 was below 1000 nM.

As for `O=C(O)c1c(Cn2cc(F)cn2)ccc2c1OB(O)CC2` [Compound 15], the IC50 was 10 to 1000 nM at CTX-M-14; below 1000 nM at VIM-1 (setting [5]); 1000 to 100000 nM on VIM-1 (setting [1]); 10 to 1000 nM at VIM-2; 10 to 1000 nM at TEM-1; below 10 nM at KPC-2. In addition, the IC50 is 10 to 1000 nM at NDM-5 (setting [2]); below 1000 nM at NDM-5 (setting [6]); 10 to 1000 nM on OXA-48; 10 to 1000 nM on SHV-12; 1000 to 100000 nM at IMP-1 (setting [3]); 10 to 1000 nM at NDM-1 (setting [4]). Also, on NDM-1 (setting [7]), the IC50 was below 1000 nM.

`O=C(O)c1c(Cn2cc(C(F)(F)F)cn2)ccc2c1OB(O)CC2` [Compound 16]: the IC50 was below 10 nM on CTX-M-14; below 1000 nM on VIM-1 (setting [5]); 1000 to 100000 nM on VIM-1 (setting [1]); 10 to 1000 nM at VIM-2; 10 to 1000 nM on TEM-1; below 10 nM at KPC-2. Also, the IC50 on NDM-5 (setting [2]) is 10 to 1000 nM; on NDM-5 (setting [6]), below 1000 nM; at OXA-48, below 10 nM; on SHV-12, 10 to 1000 nM; on IMP-1 (setting [3]), 1000 to 100000 nM; at NDM-1 (setting [4]), 10 to 1000 nM. Also, the IC50 on NDM-1 (setting [7]) was below 1000 nM.

Turning to `N#Cc1cnn(Cc2ccc3c(c2C(=O)O)OB(O)CC3)c1` [Compound 17], on CTX-M-14 (comparison in words), the “inhibitory activity on CTX-M-14 compared to avibactam” value is given as “better or comparable”. Moreover, the IC50 on CTX-M-14 is 10 to 1000 nM; on VIM-1 (setting [5]) it was below 1000 nM; on VIM-1 (setting [1]), 1000 to 100000 nM; on VIM-2 it was 10 to 1000 nM; on TEM-1, below 10 nM; at KPC-2, below 10 nM. Besides, the IC50 on NDM-5 (setting [2]) is 10 to 1000 nM; at NDM-5 (setting [6]), below 1000 nM; on OXA-48, below 10 nM; on SHV-12, 10 to 1000 nM; on IMP-1 (setting [3]), 1000 to 100000 nM; at NDM-1 (setting [4]) it was 10 to 1000 nM. Further, on NDM-1 (setting [7]), the IC50 is below 1000 nM. Also, the “inhibitory activity on TEM-1 compared to avibactam” value at TEM-1 (comparison in words) is “better or comparable”. In addition, the “inhibitory activity on KPC-2 compared to avibactam” value on KPC-2 (comparison in words) was “better or comparable”. In addition, at OXA-48 (comparison in words), the “inhibitory activity on OXA-48 compared to avibactam” value was “better or comparable”.
